Test results as given in paper PMC3495945, “Org 214007-0: A Novel Non-Steroidal Selective Glucocorticoid Receptor Modulator with Full Anti-Inflammatory Properties and Improved Therapeutic Index” (PLoS ONE, 2012).
Read-outs that look alike come from different tables or passages of the source. One block for each molecule: values may come before it.

Assays:
HepG2 cells = assay: Gene expression profiling (microarray) in HepG2 cells; assay type: cell-based, human; conditions: HepG2, 1 μM compound, 6 hours; prednisolone set at 100%
Protocol: HepG2-8/97-WS.5 cells, deprived from serum for 18 hours, were stimulated with glucocorticoid and 0.5 mM cAMP for 6 hours. RNA was isolated and used for double stranded cDNA synthesis using the One-Cycle Target Labeling Kit (Affymetrix Santa Clara, CA). This cDNA was used as a template for the preparation of biotin-labeled cRNA using the GeneChip IVT Labeling Kit (Affymetrix Santa Clara, CA). Biotin-labeled cRNA was fragmented and hybridized at 45°C for 16–17 hours to the Human Genome U133A 2.0 Array or the Human Genome U133 Plus 2.0 Array (Affymetrix, Santa Clara, CA). (for more detailed information see Supportive Information) (SI text). Arrays were stained with phycoerythrin-streptavidin conjugate (Molecular Probes, Eugene, OR), and the signals were amplified by staining the array with biotin-labeled anti-streptavidin antibody (Vector Laboratories, Burlingame, CA) followed by phycoerythrin-streptavidin. […] Data was saved as raw image file and quantified using GCOS (Affymetrix). […]
HepG2-8/97-WS.5 cells were seeded at 2.10^5 cells/mL in a 24-well plate in DMEM/F12 medium (Gibco), supplemented with 80 U/mL penicillin, 80 μg/mL streptomycin and 5% Fetal Bovine Serum (Invitrogen). […] RNA quantity and quality were determined using the Agilent […] bioanalyzer. […] Data was saved as raw image file and quantified using GCOS (Affymetrix).

THP-1 cells = assay: THP-1 induction of FKBP51, GILZ, DUSP1; assay type: cell-based, human; conditions: for EC50: Homo sapiens, THP-1, no stimulus; for Max. eff., DUSP1 induction / Max. eff., FKBP51 induction / Max. eff., GILZ induction: THP-1, prednisolone = 100%
Protocol: THP-1 cells were incubated with glucocorticoid in the presence of either DMSO (control) or IFNγ/TNFα (220 ng/ml/375 ng/ml). After 6 hours total RNA was isolated and further processed for microarray hybridization as described for the HepG2 cells. The data from all microarray experiments have been deposited in the NCBI Gene Expression Omnibus (GEO) under accession number (identifier will be included in proof). […] Expression of FKBP51, MCP-1, IL-6 and IL-8 protein was measured by specific […]; #A[…] [MCP-1], #A[…] [IL-6] and #A[…] [IL-8]) according to the manufacturer manual. […] Expression of FKBP51, DUSP1 and GILZ was measured by Q-PCR according to the same procedure as described for the HepG2 cells. In this case the following primer-pairs were used: for GAPDH: [NT] and [NT]; for FKBP51: [NT] and [NT]; for DUSP1: [NT] and [NT]; for GILZ: [NT] and [NT]. For the evaluation of protein expression, cells were incubated overnight with a whole dose range of compounds. Supernatants were collected to determine cytokine levels and cell lysates were generated by repeated freeze-thaw cycles to measure expression of FKBP51 protein. Expression of FKBP51, MCP-1, IL-6 and IL-8 was measured by specific […]; #A[…] [MCP-1], #A[…] [IL-6] and #A[…] [IL-8]) according to the manufacturer manual. […] Samples were incubated for 60 min at 23 C. […] Plates were measured using an EnVision-Alpha Reader.

LPS-induced TNFα release = assay: LPS-induced TNFα acute inflammation mouse model; assay type: in vivo; conditions: oral; for ED50: Mus musculus, 1 hour before LPS i.p., Balb/c mice, read-out: ED50, inhibition of LPS-induced serum TNFα
Protocol: For both the LPS-induced TNFα as well as the anti-CD3 induced IL-2 model, female Balb/c mice of 8–12 week old were used. Mice were treated orally with 0.2 ml compound or vehicle (water/mannitol (5%) with 5% DMSO/5% chremophore for the LPS model or with 0.5% gelatine for the anti-CD3 model). One hour after oral treatment animals were challenged i.p. with 0.2 ml of either 20 μg/mouse LPS (Sigma, E. coli serotype 055:B5) or 5 µg/mouse hamster anti-CD3 monoclonal (BD Biosciences Pharmingen, art. nr. 553057, clone 145-2C11). Ninety minutes after LPS injection or 3 hours after anti-CD3 challenge, blood samples were collected and serum levels of TNFα or IL-2 were determined via specific ELISAs (BD Biosciences Pharmingen, San Diego, CA, USA). In the experiment that included treatment with RU486 to block GR, mice were dosed subcutaneously with 50 mg/kg RU486 30 minutes before the oral compound dosing. ED50 and % efficacy (maximal percentage inhibition of TNFα or IL-2 release) are determined using a 3 parameter sigmoidal curve calculation. Statistical analysis of the results was performed using an one-way ANOVA (log) test.

[1] = read-out: EC50, DUSP1 induction
[2] = read-out: EC50, FKBP51 induction

- EC50 (THP-1 cells; [1]): 6.4 nM
- EC50 (THP-1 cells; [2]): 8 nM
- EC50 (THP-1 cells; read-out: EC50, GILZ induction): 13.7 nM
Structure (SMILES): Cc1nnsc1C(=O)N[C@H]1CCN2c3ccc(C#N)cc3[C@@H](C)c3ccccc3[C@@H]2C1 [Org 214007-0]
- Max eff., induction of gene expression, micro-array (HepG2 cells): 67%
- Max. eff., DUSP1 induction (THP-1 cells): 41 (±6) %
- Max. eff., FKBP51 induction (THP-1 cells): 42 (±8) %
- Max. eff., GILZ induction (THP-1 cells): 13 (±5) %
- ED50 (LPS-induced TNFα release): 0.5 mg/kg
- maximal efficacy, inhibition of LPS-induced TNFα release (LPS-induced TNFα release): 90%

Structure (SMILES): C[C@]12C=CC(=O)C=C1CC[C@@H]1[C@@H]2[C@@H](O)C[C@@]2(C)[C@H]1CC[C@]2(O)C(=O)CO [prednisolone, reference compound]
- Max eff., induction of gene expression, micro-array (HepG2 cells): 100%
- EC50 (THP-1 cells; [1]): 67.4 nM
- EC50 (THP-1 cells; [2]): 65.8 nM
- EC50 (THP-1 cells; read-out: EC50, GILZ induction): 60.2 nM
- Max. eff., DUSP1 induction (THP-1 cells): 100%
- Max. eff., FKBP51 induction (THP-1 cells): 100%
- Max. eff., GILZ induction (THP-1 cells): 100%
- ED50 (LPS-induced TNFα release): 1 mg/kg
